Columns and labels:
[1] = molecular target: Beta-3 adrenergic receptor (Homo sapiens) (UniProt P13945); assay: BETA3/HU Cerep selectivity data (BI); conditions: filed as antagonist, Compound concentration 20.0 uM
[2] = molecular target: Cholecystokinin receptor type A (Homo sapiens) (UniProt P32238); assay: CCKA/H Cerep selectivity data (BI); conditions: Compound concentration 20.0 uM
[3] = molecular target: Gamma-aminobutyric acid receptor subunit alpha-1 (Rattus norvegicus) (UniProt P62813); assay: GABAACENTR Eurofins-Panlabs selectivity data (BI); conditions: Compound concentration 10.0 uM
[4] = molecular target: Sigma non-opioid intracellular receptor 1 (Homo sapiens) (UniProt Q99720); assay: SIGMA1/HU Eurofins-Panlabs selectivity data (BI); conditions: Compound concentration 10.0 uM
[5] = molecular target: Tyrosine-protein kinase Fer (Homo sapiens) (UniProt P16591); assay: FER Invitrogen selectivity data (BI); conditions: Compound concentration 3.0 uM
[6] = system: T1, Receptor-type tyrosine-protein kinase FLT3 (Homo sapiens), P36888 [D835Y]; assay: FLT3 D835Y Invitrogen selectivity data (BI); conditions: Compound concentration 3.0 uM
T1 sequence (whole entry): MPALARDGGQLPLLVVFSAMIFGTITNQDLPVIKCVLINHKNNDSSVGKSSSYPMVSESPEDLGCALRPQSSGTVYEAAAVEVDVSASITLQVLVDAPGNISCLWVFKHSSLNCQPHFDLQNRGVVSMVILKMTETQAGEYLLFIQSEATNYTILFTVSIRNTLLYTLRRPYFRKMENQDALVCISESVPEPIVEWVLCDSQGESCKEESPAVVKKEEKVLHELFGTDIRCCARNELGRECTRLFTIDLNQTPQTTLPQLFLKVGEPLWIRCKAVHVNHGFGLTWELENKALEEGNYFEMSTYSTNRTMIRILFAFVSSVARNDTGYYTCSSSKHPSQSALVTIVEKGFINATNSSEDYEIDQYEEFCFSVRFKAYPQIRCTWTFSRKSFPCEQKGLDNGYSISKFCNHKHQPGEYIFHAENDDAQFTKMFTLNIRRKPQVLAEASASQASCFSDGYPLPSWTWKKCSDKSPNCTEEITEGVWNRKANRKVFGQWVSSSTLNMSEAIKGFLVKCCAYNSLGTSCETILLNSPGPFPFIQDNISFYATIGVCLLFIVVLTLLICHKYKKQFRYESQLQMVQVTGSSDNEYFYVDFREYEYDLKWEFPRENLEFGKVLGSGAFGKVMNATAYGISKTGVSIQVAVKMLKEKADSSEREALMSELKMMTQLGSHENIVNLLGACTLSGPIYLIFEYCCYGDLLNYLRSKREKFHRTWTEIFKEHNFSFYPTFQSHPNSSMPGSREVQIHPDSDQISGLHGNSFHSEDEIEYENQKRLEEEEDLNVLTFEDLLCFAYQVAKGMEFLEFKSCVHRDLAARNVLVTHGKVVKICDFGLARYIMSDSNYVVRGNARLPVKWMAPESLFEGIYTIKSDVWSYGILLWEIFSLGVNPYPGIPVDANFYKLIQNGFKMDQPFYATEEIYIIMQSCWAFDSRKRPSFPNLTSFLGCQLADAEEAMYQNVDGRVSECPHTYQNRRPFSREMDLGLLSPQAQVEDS

[7] = molecular target: Leukocyte tyrosine kinase receptor (Homo sapiens) (UniProt P29376); assay: LTK Invitrogen selectivity data (BI); conditions: Compound concentration 3.0 uM
[8] = molecular target: T2, Mitogen-activated protein kinase kinase kinase 2 (Homo sapiens) (UniProt Q9Y2U5); assay: MAP3K2 Invitrogen selectivity data (BI); conditions: Compound concentration 3.0 uM
T2 sequence (whole entry): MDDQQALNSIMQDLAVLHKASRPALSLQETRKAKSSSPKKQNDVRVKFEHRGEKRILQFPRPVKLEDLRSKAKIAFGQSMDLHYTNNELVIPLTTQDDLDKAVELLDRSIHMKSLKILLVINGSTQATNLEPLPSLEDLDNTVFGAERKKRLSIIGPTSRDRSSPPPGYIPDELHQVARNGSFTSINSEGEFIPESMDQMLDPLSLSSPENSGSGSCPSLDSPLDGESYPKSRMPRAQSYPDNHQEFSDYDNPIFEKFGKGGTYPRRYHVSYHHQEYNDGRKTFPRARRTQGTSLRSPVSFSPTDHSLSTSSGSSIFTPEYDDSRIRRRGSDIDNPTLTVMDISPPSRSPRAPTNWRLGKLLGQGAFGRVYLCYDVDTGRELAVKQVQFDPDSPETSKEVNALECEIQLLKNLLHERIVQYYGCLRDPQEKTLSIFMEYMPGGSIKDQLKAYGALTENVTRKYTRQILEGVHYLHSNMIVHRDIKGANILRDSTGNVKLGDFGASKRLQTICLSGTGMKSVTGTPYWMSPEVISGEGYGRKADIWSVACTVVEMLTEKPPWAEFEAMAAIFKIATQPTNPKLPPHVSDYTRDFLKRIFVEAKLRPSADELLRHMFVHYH

[9] = molecular target: Mitogen-activated protein kinase 3 (Homo sapiens) (UniProt P27361); assay: MAPK3 Invitrogen selectivity data (BI); conditions: Compound concentration 3.0 uM
[10] = molecular target: Phosphorylase b kinase gamma catalytic chain, skeletal muscle/heart isoform (Homo sapiens) (UniProt Q16816); assay: PHKG1 Invitrogen selectivity data (BI); conditions: Compound concentration 3.0 uM
[11] = molecular target: T3, Serine/threonine-protein kinase D2 (Homo sapiens) (UniProt Q9BZL6); assay: PRKD2 Invitrogen selectivity data (BI); conditions: Compound concentration 3.0 uM
T3 sequence (whole entry): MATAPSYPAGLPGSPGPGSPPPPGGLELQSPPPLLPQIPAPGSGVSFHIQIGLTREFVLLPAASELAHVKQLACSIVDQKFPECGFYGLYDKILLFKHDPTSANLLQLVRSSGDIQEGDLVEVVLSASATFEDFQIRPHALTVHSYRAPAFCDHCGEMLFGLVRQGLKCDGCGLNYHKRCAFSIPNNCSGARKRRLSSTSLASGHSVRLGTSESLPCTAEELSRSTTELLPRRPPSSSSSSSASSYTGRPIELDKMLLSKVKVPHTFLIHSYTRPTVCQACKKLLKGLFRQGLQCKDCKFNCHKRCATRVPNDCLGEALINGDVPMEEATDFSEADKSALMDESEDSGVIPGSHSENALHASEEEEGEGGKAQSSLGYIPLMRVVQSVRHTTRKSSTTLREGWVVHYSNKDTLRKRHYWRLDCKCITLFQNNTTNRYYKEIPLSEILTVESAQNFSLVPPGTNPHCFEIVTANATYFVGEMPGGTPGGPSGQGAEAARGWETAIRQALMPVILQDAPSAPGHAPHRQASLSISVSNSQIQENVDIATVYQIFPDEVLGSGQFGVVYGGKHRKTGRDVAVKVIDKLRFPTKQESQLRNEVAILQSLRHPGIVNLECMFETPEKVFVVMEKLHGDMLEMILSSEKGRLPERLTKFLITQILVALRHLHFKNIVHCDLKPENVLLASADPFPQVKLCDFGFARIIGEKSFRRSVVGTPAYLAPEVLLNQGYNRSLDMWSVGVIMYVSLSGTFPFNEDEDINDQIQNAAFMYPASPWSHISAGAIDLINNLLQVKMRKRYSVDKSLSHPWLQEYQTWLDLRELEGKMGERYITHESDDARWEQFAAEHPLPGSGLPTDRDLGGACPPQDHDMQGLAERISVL

Measured: residual activity

Chain of Phosphorylase b kinase gamma catalytic chain, skeletal muscle/heart isoform (Homo sapiens) (Q16816 whole entry, looked up, canonical isoform): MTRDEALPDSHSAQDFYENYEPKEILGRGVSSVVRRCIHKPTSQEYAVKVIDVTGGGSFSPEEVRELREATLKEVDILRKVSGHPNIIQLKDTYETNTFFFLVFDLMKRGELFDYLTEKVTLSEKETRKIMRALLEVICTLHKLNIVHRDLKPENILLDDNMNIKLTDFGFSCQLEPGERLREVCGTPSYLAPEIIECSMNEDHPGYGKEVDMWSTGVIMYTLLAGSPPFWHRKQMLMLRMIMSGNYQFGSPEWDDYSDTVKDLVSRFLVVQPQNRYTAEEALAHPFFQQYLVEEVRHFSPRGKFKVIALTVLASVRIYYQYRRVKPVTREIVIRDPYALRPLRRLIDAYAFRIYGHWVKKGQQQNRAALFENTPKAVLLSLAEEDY
Chain of Mitogen-activated protein kinase 3 (Homo sapiens) (P27361 whole entry, canonical isoform): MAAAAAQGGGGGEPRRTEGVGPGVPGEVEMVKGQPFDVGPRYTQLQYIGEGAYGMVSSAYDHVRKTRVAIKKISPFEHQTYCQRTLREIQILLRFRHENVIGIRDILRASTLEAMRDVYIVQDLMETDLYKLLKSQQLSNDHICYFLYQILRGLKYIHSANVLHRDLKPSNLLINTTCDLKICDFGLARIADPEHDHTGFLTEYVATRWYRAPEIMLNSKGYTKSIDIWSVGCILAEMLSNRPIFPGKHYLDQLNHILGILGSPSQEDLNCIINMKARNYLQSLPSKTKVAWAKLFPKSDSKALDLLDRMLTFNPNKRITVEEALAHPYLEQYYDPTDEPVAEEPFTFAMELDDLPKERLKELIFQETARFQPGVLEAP
Chain of Cholecystokinin receptor type A (Homo sapiens) (P32238 whole entry): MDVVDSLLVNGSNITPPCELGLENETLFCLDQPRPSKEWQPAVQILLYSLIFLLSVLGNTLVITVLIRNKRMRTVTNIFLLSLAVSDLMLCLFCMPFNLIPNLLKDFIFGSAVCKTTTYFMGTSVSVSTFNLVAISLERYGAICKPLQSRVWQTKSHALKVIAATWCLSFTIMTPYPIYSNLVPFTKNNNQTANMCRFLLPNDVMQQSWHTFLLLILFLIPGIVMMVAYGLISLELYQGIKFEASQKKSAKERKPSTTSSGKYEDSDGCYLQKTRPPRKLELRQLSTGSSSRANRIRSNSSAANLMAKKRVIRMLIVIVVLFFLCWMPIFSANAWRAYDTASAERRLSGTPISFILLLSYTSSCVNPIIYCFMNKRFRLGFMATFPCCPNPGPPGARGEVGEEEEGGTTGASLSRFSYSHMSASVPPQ
Chain of Sigma non-opioid intracellular receptor 1 (Homo sapiens) (Q99720 whole entry): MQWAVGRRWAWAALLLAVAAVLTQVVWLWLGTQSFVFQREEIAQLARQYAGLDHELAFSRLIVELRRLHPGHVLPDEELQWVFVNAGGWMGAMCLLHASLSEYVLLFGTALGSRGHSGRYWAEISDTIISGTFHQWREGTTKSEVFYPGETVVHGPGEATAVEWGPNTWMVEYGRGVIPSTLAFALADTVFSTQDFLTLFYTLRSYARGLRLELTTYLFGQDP
Chain of Gamma-aminobutyric acid receptor subunit alpha-1 (Rattus norvegicus) (P62813 whole entry): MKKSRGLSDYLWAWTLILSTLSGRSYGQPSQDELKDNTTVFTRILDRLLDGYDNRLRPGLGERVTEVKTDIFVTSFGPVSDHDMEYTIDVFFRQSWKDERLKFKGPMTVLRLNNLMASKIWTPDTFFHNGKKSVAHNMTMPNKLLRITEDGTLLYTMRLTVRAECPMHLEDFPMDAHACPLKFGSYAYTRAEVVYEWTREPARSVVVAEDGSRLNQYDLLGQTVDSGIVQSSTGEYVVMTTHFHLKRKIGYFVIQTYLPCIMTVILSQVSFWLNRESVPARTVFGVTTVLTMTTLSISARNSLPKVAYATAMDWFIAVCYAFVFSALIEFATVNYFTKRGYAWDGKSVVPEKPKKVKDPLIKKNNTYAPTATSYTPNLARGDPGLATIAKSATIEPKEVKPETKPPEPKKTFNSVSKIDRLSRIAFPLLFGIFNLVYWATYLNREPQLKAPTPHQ
Chain of Leukocyte tyrosine kinase receptor (Homo sapiens) (P29376 whole entry): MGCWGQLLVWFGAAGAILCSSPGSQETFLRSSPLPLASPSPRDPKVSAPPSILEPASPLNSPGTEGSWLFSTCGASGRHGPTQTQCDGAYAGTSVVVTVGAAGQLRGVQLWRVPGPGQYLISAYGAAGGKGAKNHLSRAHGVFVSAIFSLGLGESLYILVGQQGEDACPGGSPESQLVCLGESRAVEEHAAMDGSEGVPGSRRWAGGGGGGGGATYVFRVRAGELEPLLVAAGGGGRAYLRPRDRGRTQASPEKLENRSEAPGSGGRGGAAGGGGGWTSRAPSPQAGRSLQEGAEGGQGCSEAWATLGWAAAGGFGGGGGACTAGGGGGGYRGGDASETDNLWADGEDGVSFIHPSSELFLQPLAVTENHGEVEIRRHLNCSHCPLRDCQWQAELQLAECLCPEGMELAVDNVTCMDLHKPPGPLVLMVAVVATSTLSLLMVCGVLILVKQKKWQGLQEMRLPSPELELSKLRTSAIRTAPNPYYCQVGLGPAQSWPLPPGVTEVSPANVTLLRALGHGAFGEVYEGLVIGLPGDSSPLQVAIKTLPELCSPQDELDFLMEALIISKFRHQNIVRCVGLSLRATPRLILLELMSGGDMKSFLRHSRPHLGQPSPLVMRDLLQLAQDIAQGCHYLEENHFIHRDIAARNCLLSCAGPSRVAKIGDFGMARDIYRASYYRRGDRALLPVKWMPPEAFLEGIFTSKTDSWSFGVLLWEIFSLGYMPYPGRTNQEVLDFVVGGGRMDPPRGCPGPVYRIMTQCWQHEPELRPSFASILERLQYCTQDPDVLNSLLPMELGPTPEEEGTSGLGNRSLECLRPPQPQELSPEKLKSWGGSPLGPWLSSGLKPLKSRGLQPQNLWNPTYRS
Chain of Tyrosine-protein kinase Fer (Homo sapiens) (P16591 whole entry, looked up): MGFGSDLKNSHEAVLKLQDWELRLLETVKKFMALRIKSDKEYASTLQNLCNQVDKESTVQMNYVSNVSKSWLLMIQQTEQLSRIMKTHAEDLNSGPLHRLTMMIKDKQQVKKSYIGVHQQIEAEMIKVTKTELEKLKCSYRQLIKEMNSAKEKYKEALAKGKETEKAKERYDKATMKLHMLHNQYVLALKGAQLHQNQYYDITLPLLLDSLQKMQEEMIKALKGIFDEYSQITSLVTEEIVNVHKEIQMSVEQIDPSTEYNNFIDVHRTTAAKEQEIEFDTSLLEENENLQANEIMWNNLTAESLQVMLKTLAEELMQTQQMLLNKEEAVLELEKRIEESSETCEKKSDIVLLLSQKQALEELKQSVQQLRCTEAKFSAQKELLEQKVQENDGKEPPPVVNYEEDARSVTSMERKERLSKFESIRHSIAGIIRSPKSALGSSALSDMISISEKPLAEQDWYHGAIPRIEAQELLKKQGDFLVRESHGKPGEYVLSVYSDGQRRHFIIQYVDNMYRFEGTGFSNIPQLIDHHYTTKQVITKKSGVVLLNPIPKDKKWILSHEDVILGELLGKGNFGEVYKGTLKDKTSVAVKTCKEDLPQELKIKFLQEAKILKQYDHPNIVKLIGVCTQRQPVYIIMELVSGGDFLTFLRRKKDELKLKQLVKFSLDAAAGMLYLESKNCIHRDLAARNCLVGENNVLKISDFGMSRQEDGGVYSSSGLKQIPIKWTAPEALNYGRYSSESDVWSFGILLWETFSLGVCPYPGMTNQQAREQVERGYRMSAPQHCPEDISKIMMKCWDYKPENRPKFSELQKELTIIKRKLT
Chain of Beta-3 adrenergic receptor (Homo sapiens) (P13945 whole entry, looked up): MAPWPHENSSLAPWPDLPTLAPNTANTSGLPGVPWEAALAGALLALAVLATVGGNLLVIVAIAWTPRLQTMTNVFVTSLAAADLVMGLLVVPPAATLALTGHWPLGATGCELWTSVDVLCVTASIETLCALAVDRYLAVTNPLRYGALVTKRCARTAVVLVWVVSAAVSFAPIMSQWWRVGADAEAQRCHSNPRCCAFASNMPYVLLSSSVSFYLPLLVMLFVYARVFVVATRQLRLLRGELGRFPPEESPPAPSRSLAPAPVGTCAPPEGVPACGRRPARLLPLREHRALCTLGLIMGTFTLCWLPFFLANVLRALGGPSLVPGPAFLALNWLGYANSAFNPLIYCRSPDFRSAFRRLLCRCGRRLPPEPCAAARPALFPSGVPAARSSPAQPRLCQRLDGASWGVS

CN(C)C(=O)Cn1cc(-c2nc([C@@](C)(c3ccc(-c4cnc(N)nc4)cc3)C3CC3)no2)cn1 [BI 665915]
inactive: [1] 86% | [2] 113% | [3] 115% | [4] 108% | [5] 98.5% | [6] 79% | [7] 96.5% | [8] 97% | [9] 97% | [10] 97.5% | [11] 95%
